From patent publication US8148422B2, “Sulfonamides as TRPM8 modulators” (Janssen Pharmaceutica, NV, priority 2008, dated 2012)
Like-named read-outs stand apart in the source and are kept apart here.

How the values were obtained:
[1] = target: T1, canine TRPM8 (Canis lupus familiaris, UniProt Q1A7N1); assay: In vitro canine TRPM8 functional assay (Ca2+-sensitive fluorescent dye, FLIPR or FDSS, icilin challenge); assay type: cell-based; conditions: for inhibition at 0.2 µM: 0.2 μM compound
T1 construct: expressed in transfected cells
Outline: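 Canine TRPM8 stably expressed in HEK293; compound added 5 min before icilin challenge (~80% max response), with fluorescent Ca2+ signal tracked throughout.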

[2] = system: icilin-induced "wet-dog" shakes (WDS); assay: Inhibition of icilin-induced "wet-dog" shakes in rats; assay type: in vivo; conditions: HCl salt, 10 mpk PO, vehicle HPbCD; male Sprague Dawley rats; [1-(test compound WDS count/vehicle WDS count)]x100
Protocol: Male Sprague Dawley rats (220-450 g, Charles River Labs, n=6-9/treatment) were used to evaluate the ability of compounds selected from the group consisting of formula (I) and formula (II) to block icilin-induced “wet-dog” shakes (WDS). Compounds selected from the group consisting of formula (I) and formula (II) were administered in an appropriate vehicle, such as hydroxypropyl-β-cyclodextrin (HPβCD), methocellulose, 10% Solutol, or H2O, or the like, by the appropriate route, i.p. or p.o., 30-120 minutes before icilin. Icilin was administered in PEG-400 or 10% solutol/H2O, at 1.0 or 3.0 mg/kg, i.p. and spontaneous “wet-dog” shakes were counted 10-20 minutes post-icilin. Results are presented as a percent inhibition of shakes, which was calculated as [1−(test compound WDS count/vehicle WDS count)]×100.

[3] = HEK293 cells stably expressing canine TRPM8, icilin challenge
[4] = HEK293 cells stably expressing canine TRPM8, icilin at approx. 80% maximal response, eight-point dose-response, single determinations unless otherwise noted, read-out: IC50

T1 sequence (Q1A7N1 1-1104): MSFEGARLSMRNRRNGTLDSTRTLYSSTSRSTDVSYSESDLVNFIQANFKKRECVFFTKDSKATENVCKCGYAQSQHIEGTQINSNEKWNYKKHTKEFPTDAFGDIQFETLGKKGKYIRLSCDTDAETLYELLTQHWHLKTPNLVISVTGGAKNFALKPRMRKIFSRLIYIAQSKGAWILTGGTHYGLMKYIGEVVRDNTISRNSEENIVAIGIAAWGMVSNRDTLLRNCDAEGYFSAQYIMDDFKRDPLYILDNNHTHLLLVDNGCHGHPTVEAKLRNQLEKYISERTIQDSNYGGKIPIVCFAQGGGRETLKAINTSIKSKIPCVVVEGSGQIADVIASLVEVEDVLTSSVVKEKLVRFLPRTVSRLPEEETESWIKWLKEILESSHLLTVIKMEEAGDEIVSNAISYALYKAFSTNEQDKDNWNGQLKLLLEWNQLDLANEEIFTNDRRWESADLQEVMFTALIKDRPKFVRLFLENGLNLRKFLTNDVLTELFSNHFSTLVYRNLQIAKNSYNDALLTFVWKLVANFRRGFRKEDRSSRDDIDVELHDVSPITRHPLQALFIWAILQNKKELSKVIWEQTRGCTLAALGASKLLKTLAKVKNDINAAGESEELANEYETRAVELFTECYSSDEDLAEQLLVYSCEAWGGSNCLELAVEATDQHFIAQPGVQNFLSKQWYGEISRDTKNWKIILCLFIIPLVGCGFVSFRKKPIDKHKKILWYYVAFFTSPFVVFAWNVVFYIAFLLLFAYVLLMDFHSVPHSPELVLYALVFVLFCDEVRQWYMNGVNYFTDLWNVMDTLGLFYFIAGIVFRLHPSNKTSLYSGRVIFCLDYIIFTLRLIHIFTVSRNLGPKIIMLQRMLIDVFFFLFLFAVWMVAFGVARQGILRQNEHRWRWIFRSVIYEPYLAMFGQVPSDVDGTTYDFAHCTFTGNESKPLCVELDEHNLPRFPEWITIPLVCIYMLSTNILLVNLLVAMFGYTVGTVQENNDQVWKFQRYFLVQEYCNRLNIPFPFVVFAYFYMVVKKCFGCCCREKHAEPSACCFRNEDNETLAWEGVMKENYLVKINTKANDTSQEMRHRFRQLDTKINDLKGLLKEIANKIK

Compound	IC50 [1]	inhibition at 0.2 µM [1, 3]	IC50 ([1]; IC50, determination of HCl salt, HEK293 cells stably expressing canine TRPM8, icilin challenge)	inhibition at 0.2 µM ([1]; determination of HCl salt)	% Inhibition (of wet-dog shakes) [2]	IC50 [1, 4]
Cc1c(N(Cc2ccc(OC(F)(F)F)cc2)S(=O)(=O)CCN2CCC(c3ccccc3)CC2)sc2ccccc12 [Cpd 25, N-(3-Methylbenzo[b]thiophen-2-yl)-N-(4-trifluoromethoxy-benzyl)-2-(4-phenylpiperidin-1-yl)ethylsulfonamide]	29 nM	100%	26 nM	100%	12.7%	
Cc1c(N(Cc2ccc(OC(F)(F)F)cc2)S(=O)(=O)CCN(CC(C)C)CC(C)C)sc2ccccc12 [Cpd 16, N-(3-Methylbenzo[b]thiophen-2-yl)-N-(4-trifluoromethoxy-benzyl)-2-(diisobutylamino)ethylsulfonamide]		101%			0%	6 nM
Cc1c(N(Cc2ccc(F)c(F)c2)S(=O)(=O)CCN(CC(C)C)CC(C)C)sc2ccccc12 [Cpd 80, N-(3-Methylbenzo[b]thiophen-2-yl)-N-(3,4-difluoro-benzyl)-2-(di-iso-butylamino)ethylsulfonamide]		100%			0%	26 nM
Cc1c(N(CCCCC(F)(F)F)S(=O)(=O)CCN(CC(C)C)CC(C)C)sc2ccccc12 [Cpd 78, N-(3-Methylbenzo[b]thiophen-2-yl)-N-(5,5,5-trifluoro-n-pent-1-yl)-2-(di-iso-butylamino)ethylsulfonamide]		100%			3%	18 nM
Cc1c(N(CCC2CC2)S(=O)(=O)CCN(CC(C)C)CC(C)C)sc2ccccc12 [Cpd 74, N-(3-Methylbenzo[b]thiophen-2-yl)-N-(2-cyclopropyl-ethyl)-2-(diisobutylamino)ethylsulfonamide]		100%			26%	17 nM
Cc1c(N(Cc2ccc(OC(F)(F)F)cc2)S(=O)(=O)CCN(C)Cc2ccccc2)sc2ccccc12 [Cpd 14, N-(3-Methylbenzo[b]thiophen-2-yl)-N-(4-trifluoromethoxy-benzyl)-2-(benzyl-methylamino)ethylsulfonamide]		102%			0%	16 nM
Cc1c(N(Cc2ccc(OC(F)(F)F)cc2)S(=O)(=O)CCN2CCN(C)CC2)sc2ccccc12 [Cpd 28, N-(3-Methylbenzo[b]thiophen-2-yl)-N-(4-trifluoromethoxy-benzyl)-2-(4-methylpiperazin-1-yl)ethylsulfonamide]		25%				
Cc1c(N(Cc2ccc(OC(F)(F)F)cc2)S(=O)(=O)CCN(C)C)sc2ccccc12 [Cpd 49, N-(3-Methylbenzo[b]thiophen-2-yl)-N-(4-trifluoromethoxy-benzyl)-2-(dimethylamino)ethylsulfonamide]		65%				
Cc1c(N(CCCCC(F)(F)F)S(=O)(=O)CCN(C)Cc2ccccc2)sc2ccccc12 [Cpd 79, N-(3-Methylbenzo[b]thiophen-2-yl)-N-(5,5,5-trifluoro-n-pent-1-yl)-2-(benzyl-methylamino)ethylsulfonamide]		98%				37 nM
CC(=O)N1CCN(CCS(=O)(=O)N(Cc2ccc(OC(F)(F)F)cc2)c2sc3ccccc3c2Br)CC1 [Cpd 65, N-(3-Bromobenzo[b]thiophen-2-yl)-N-(4-trifluoromethoxy-benzyl)-2-(4-acetyl-1-piperazinyl)ethylsulfonamide]		101%				41 nM
Cc1c(N(Cc2ccc(OC(F)(F)F)cc2)S(=O)(=O)CCNCC(C)C)sc2ccccc12 [Cpd 73, N-(3-Methylbenzo[b]thiophen-2-yl)-N-(4-trifluoromethoxy-benzyl)-2-(isobutylamino)ethylsulfonamide]		19%				
O=S(=O)(CCN1CCCCC1)N(Cc1ccc(OC(F)(F)F)cc1)c1sc2ccccc2c1Cl [Cpd 3, N-(3-Chlorobenzo[b]thiophen-2-yl)-N-(4-trifluoromethoxy-benzyl)-2-(piperidin-1-yl)ethylsulfonamide]		97%				30 nM
CC(C)CN(CCS(=O)(=O)N(Cc1ccc(OC(F)(F)F)cc1)c1ccc2ccccc2c1)CC(C)C [Cpd 96, N-(Naphth-2-yl)-N-(4-trifluoromethoxy-benzyl)-2-(diisobutylamino)-ethylsulfonamide]		72%				153 nM
CCN(CCS(=O)(=O)N(CCCCC(F)(F)F)c1sc2ccccc2c1C)CC(C)C [Cpd 89, N-(3-Methylbenzo[b]thiophen-2-yl)-N-(5,5,5-tritluoro-n-pent-1-yl)-2-(ethyl-isobutylamino)ethylsulfonamide]		99%				36 nM
CC(=O)N1CCN(CCS(=O)(=O)N(Cc2ccc(OC(F)(F)F)cc2)c2sc3ccccc3c2C)CC1 [Cpd 29, N-(3-Methylbenzo[b]thiophen-2-yl)-N-(4-trifluoromethoxy-benzyl)-2-(4-acetylpiperazin-1-yl)ethylsulfonamide]		101%				12 nM
Cc1c(N(Cc2ccc(OC(F)(F)F)cc2)S(=O)(=O)CCN2CCC(O)CC2)sc2ccccc12 [Cpd 20, N-(3-Methylbenzo[b]thiophen-2-yl)-N-(4-trifluoromethoxy-benzyl)-2-(4-hydroxypiperidin-1-yl)ethylsulfonamide]		99%				25 nM
O=S(=O)(CCN1CC(F)(F)C1)N(Cc1ccc(OC(F)(F)F)cc1)c1ccc2ccccc2c1 [Cpd 55, N-(Naphth-2-yl)-N-(4-trifluoromethoxy-benzyl)-2-(3,3-difluoroazetidin-1-yl)ethylsulfonamide]		84%				109 nM
Cc1c(N(CCC2CC2)S(=O)(=O)CCN(C)Cc2ccccc2)sc2ccccc12 [Cpd 75, N-(3-Methylbenzo[b]thiophen-2-yl)-N-(2-cyclopropyl-ethyl)-2-(benzyl-methylamino)ethylsulfonamide]		89%				59 nM
CCOC(=O)C1CCN(CCS(=O)(=O)N(CCC2CC2)c2sc3ccccc3c2C)CC1 [Cpd 84, N-(3-Methylbenzo[b]thiophen-2-yl)-N-(2-cyclopropyl-ethyl)-2-(4-carboethoxypiperidin-1-yl)ethylsulfonamide]		97%				72 nM
Cc1c(N(Cc2ccc(F)c(F)c2)S(=O)(=O)CCN(C)Cc2ccccc2)sc2ccccc12 [Cpd 81, N-(3-Methylbenzo[b]thiophen-2-yl)-N-(3,4-difluoro-benzyl)-2-(benzyl-methylamino)ethylsulfonamide]		101%				36 nM
CCCN(CCC)CCS(=O)(=O)N(Cc1ccc(OC(F)(F)F)cc1)c1cc2ccccc2s1 [Cpd 1, N-(Benzo[b]thiophen-2-yl)-N-(4-trifluoromethoxy-benzyl)-2-(di-propylamino)ethylsulfonamide]		78%				114 nM
Cc1c(N(Cc2ccc(OC(F)(F)F)cc2)S(=O)(=O)CCN2CCC[C@@H]2C(F)(F)F)sc2ccccc12 [Cpd 72, N-(3-Methylbenzo[b]thiophen-2-yl)-N-(4-trifluoromethoxy-benzyl)-2-[2(R)-trifluoromethyl-pyrrolidin-1-yl]ethylsulfonamide]		100%				10 nM
CN(CCS(=O)(=O)N(Cc1ccc(OC(F)(F)F)cc1)c1sc2ccccc2c1Br)Cc1ccccc1 [Cpd 61, N-(3-Bromobenzo[b]thiophen-2-yl)-N-(4-trifluoromethoxy-benzyl)-2-(benzyl-methylamino)ethylsulfonamide]		102%				28 nM
Cc1c(N(Cc2ccc(OC(F)(F)F)cc2)S(=O)(=O)CCN2[C@H](C)CCC[C@@H]2C)sc2ccccc12 [Cpd 22, N-(3-Methylbenzo[b]thiophen-2-yl)-N-(4-trifluoromethoxy-benzyl)-2-(cis-2,6-dimethylpiperidin-1-yl)ethylsulfonamide]		99%				13 nM
